IC50 data for two compounds are collected here from patent publication US20140323418A1, “SELECTIVE KINASE INHIBITORS” (PORTOLA PHARMACEUTICALS, INC., priority 2011, published 2014).

This assay deals with T1, full length active recombinant SYK enzyme (Homo sapiens, UniProt P43405).
T1 construct: full length active recombinant SYK enzyme (Millipore, Calif.); purchased Millipore
The assay can be described thus: Inhibition of Syk tyrosine phosphorylation activity (LANCE TR-FRET kinase assay). It counts as biochemical. As to conditions: 1 nM SYK, 550 nM substrate, 100 μM ATP, 1 hour room temperature. Background: Time-resolved FRET reads energy transfer from a long-lived donor to a nearby acceptor.

In the case of `N#Cc1cccc(Nc2nc(N[C@@H]3CCOC[C@@H]3N)ncc2C(N)=O)c1` [Example 53, 2-(((3R,4R)-3-aminotetrahydro-2H-pyran-4-yl)amino)-4-((3-cyanophenyl)amino)pyrimidine-5-carboxamide], the half-inhibitory concentration (IC50) – broadly, the concentration needed to halve the response being measured – was 0.01 to 0.1 µM. The value for `NC(=O)c1cnc(NCC2(N)CC2)nc1Nc1cccc(-n2cccn2)c1` [Example 106, 4-(3-(1H-pyrazol-1-yl)phenylamino)-2-((1-aminocyclopropyl)methylamino)pyrimidine-5-carboxamide] was 0.01 to 0.1 µM.
